Publication PMC3366211, “Leishmanicidal Activity of Nine Novel Flavonoids from Delphinium staphisagria” (The Scientific World Journal, 2012)

Experiments:
[1] = tested on: L. infantum intracellular amastigote forms; assay: Intracellular amastigote forms assay in J774.2 macrophages; type: cell-based, Leishmania infantum; conditions: for SI Intracellular amastigote forms / number of times that compound SI exceeds the reference drug SI, Intracellular amastigote forms: L. infantum; for SI Intracellular amastigote forms: IC50 macrophages/IC50 parasite form; for number of times that compound SI exceeds the reference drug SI, Intracellular amastigote forms: in brackets, reference Glucantime; for IC50: Leishmania infantum, L. infantum in J774.2 macrophages, 72 h
Protocol: (§1) Cells were seeded at a density of 1 × 10^4 cells/well in 24-well microplates (Nunc) with rounded coverslips on the bottom and cultured for 2 days. Afterwards the cells were infected in vitro with promastigote forms of L. infantum and L. braziliensis, at a ratio of 10 : 1 during 24 hours. The non-phagocytosed parasites were removed by washing, and then the drugs (at 1, 10, 25, 50, 100 μM) were added. Macrophages with the drugs were incubated for 72 hours at 37°C in 5% CO2.
(§2) Drug activity was determined on the basis of number of amastigotes in treated and untreated cultures in methanol-fixed and Giemsa-stained preparations. The number of amastigotes was determined by analyzing 200 host cells distributed in randomly chosen microscopic fields. The antileishmanial effect is expressed as the IC50 values are the means of three separate determinations.

[2] = tested on: epimastigote forms of Trypanosoma cruzi; parameters: method as in PMID 21466157; conditions: cited from earlier work
[3] = tested on: L. braziliensis promastigote forms; assay: Promastigote forms assay; type: cell-based, Leishmania braziliensis; conditions: for SI Promastigote forms: IC50 macrophages/IC50 parasite form; for IC50: Leishmania braziliensis, 72 h; for number of times that compound SI exceeds the reference drug SI, Promastigote forms: in brackets, reference Glucantime
Protocol: (§3) The compounds obtained were dissolved in the culture medium, at dosages of 100, 50, 25, 10, and 1 μM. The effects of each compound against promastigote forms were tested at 72 hours using a Neubauer haemocytometric chamber. The antileishmanial effect is expressed as the IC50, that is, the concentration required to give 50% inhibition, calculated by linear regression analysis from the Kc values of the concentrations employed.

[4] = tested on: L. infantum axenic amastigote forms; assay: Axenic amastigote forms assay; type: cell-based, Leishmania infantum; conditions: for SI Axenic amastigote forms: IC50 macrophages/IC50 parasite form; for IC50: Leishmania infantum, 48 hours per method (72 h); for number of times that compound SI exceeds the reference drug SI, Axenic amastigote forms: in brackets, reference Glucantime
Protocol: (§4) Axenic amastigotes forms of L. infantum and L. braziliensis were cultured following the methodology described previously by Moreno et al.. Thus, promastigote transformation to amastigotes was obtained after three days of culture in M199 medium (Invitrogen, Leiden, The Netherlands) supplemented with 10% heat-inactivated FCS, 1 g/L β-alanine, 100 mg/L L-asparagine, 200 mg/L sacarose, 50 mg/L sodium pyruvate, 320 mg/L malic acid, 40 mg/L fumaric acid, 70 mg/L succinic acid, 200 mg/L α-ketoglutaric acid, 300 mg/L citric acid, 1.1 g/L sodium bicarbonate, 5 g/L MES, 0.4 mg/L hemin, and 10 mg/L gentamicin pH 5.4 at 37°C. The effect of each compound against axenic amastigotes forms was tested at 48 hours using a Neubauer haemocytometric chamber. The antileishmanial effect is expressed as the IC50.

[5] = tested on: L. braziliensis axenic amastigote forms; assay: Axenic amastigote forms assay; type: cell-based, Leishmania braziliensis; conditions: for SI Axenic amastigote forms: IC50 macrophages/IC50 parasite form; for IC50: Leishmania braziliensis, 48 hours per method (72 h); for number of times that compound SI exceeds the reference drug SI, Axenic amastigote forms: in brackets, reference Glucantime
Protocol: as §4

[6] = tested on: J774.2 macrophages; assay: Cytotoxicity test for macrophages (flow cytometry); type: cell-based, BALB/c rat; conditions: Mus musculus, J774.2, 72 h, J774.2 macrophages after 72 h of culture; read-out: Macrophage toxicity IC50
Protocol: J774.2 macrophages (ECACC number 91051511) were originally obtained from a tumour in a female BALB/c […] in 1968. The cytotoxicity test for macrophages was performed according to the methodology of González et al.. After 72 hours of treatment, cell viability was determined by flow cytometry. Thus, 100 μL/well of propidium iodide solution ([…]) was added and incubated for 10 min at 28°C in darkness. Afterwards, 100 μL/well of fluorescein diacetate (100 ng/mL) was added and incubated under the same conditions. Finally, the cells were recovered by centrifugation at 400 g for 10 min and the precipitate washed with phosphate buffered saline (PBS). Flow cytometric analysis was performed with a FACSVantage flow cytometer (Becton Dickinson). The percentage viability was calculated in comparison with the control culture. The IC50 was calculated using linear regression analysis from the Kc values of the concentrations employed.

[7] = tested on: L. braziliensis intracellular amastigote forms; assay: Intracellular amastigote forms assay in J774.2 macrophages; type: cell-based, Leishmania braziliensis; conditions: for SI Intracellular amastigote forms / number of times that compound SI exceeds the reference drug SI, Intracellular amastigote forms: L. braziliensis; for SI Intracellular amastigote forms: IC50 macrophages/IC50 parasite form; for number of times that compound SI exceeds the reference drug SI, Intracellular amastigote forms: in brackets, reference Glucantime; for IC50: Leishmania braziliensis, L. braziliensis in J774.2 macrophages, 72 h
Protocol: as §1, §2

[8] = tested on: L. infantum promastigote forms; assay: Promastigote forms assay; type: cell-based, Leishmania infantum; conditions: for SI Promastigote forms: IC50 macrophages/IC50 parasite form; for IC50: Leishmania infantum, 72 h; for times SI exceeds the reference drug SI (all forms): extracellular and intracellular forms; for times SI exceeds the reference drug SI (all forms) / number of times that compound SI exceeds the reference drug SI, Promastigote forms: reference Glucantime; for number of times that compound SI exceeds the reference drug SI, Promastigote forms: in brackets
Protocol: as §3

IC50 [1] [µM] | IC50 [3] [µM] | IC50 [4] [µM] | IC50 [5] [µM] | IC50 [7] [µM] | IC50 [8] [µM] | SMILES | SI Intracellular amastigote forms [1] | number of times that compound SI exceeds the reference drug SI, Intracellular amastigote forms [1] | IC50 compared with benznidazole [2] | SI Promastigote forms [3] | number of times that compound SI exceeds the reference drug SI, Promastigote forms [3] | SI Axenic amastigote forms [4] | number of times that compound SI exceeds the reference drug SI, Axenic amastigote forms [4] | SI Axenic amastigote forms [5] | number of times that compound SI exceeds the reference drug SI, Axenic amastigote forms [5] | IC50 [6] [µM] | SI Intracellular amastigote forms [7] | number of times that compound SI exceeds the reference drug SI, Intracellular amastigote forms [7] | SI Promastigote forms [8] | times SI exceeds the reference drug SI (all forms) [8] [times] | other results
45.9 ± 2.7 | 28.1 ± 1 | 29.2 ± 2.8 | 22.6 ± 1.7 | 32.2 ± 1.6 | 35.1 ± 3.3 | O=c1c(O[C@@H]2O[C@H](CO)[C@@H](O)[C@H](O)[C@H]2O)c(-c2ccc(O)cc2)oc2cc(O)cc(O)c12 [Compound 1, astragalin] | 5.1 | 10 | significantly lower IC50 values compared with benznidazole | 8.4 | 14 | 8.1 | 14 | 10.4 | 21 | 236 ± 17.9 | 7.3 | 15 | 6.7 | < 50 | number of times that compound SI exceeds the reference drug SI, Promastigote forms [8]: 8
42.3 ± 3.9 | 25.1 ± 2.5 | 32.7 ± 5 | 27.9 ± 2.7 | 30.2 ± 3.8 | 34.1 ± 1.6 | CC(=O)O[C@H]1[C@H](Oc2c(-c3ccc(O)cc3)oc3cc(O)cc(O)c3c2=O)O[C@H](CO)[C@@H](O)[C@@H]1O [Compound 2] | 6.3 | 13 | significantly lower IC50 values compared with benznidazole | 10.6 | 18 | 8.2 | 14 | 9.6 | 19 | 267 ± 11 | 8.8 | 18 | 7.8 | < 50 | number of times that compound SI exceeds the reference drug SI, Promastigote forms [8]: 10
38.1 ± 1.6 | 28.4 ± 3 | 29.2 ± 3.1 | 32.9 ± 3 | 41.9 ± 4 | 40.4 ± 3.4 | CC(=O)OC[C@H]1O[C@@H](Oc2c(-c3ccc(OC(C)=O)cc3)oc3cc(OC(C)=O)cc(OC(C)=O)c3c2=O)[C@H](OC(C)=O)[C@@H](OC(C)=O)[C@@H]1OC(C)=O [Compound 3] | 9.2 | 18 | significantly lower IC50 values compared with benznidazole | 12.3 | 21 | 12.0 | 20 | 10.7 | 21 | 351 ± 26.8 | 8.4 | 17 | 8.7 | < 50 | number of times that compound SI exceeds the reference drug SI, Promastigote forms [8]: 11
